In assay [1] the target is recombinant DYRK1A kinase (Homo sapiens (Human), UniProt Q13627). In words: DYRK1A kinase assay (Ser/Thr 18 peptide Z-lyte FRET).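 Further: Read-out is the coumarin to fluorescein emission ratio, referenced to unphosphorylated (0%) and phosphorylated (100%) Ser/Thr 18 peptide controls, values from dose-response curves by non-linear regression.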 The assay is classed as biochemical. The following applies: 30 μM ATP, 1 h room temperature.
Assay [2] concerns Wnt pathway (Sp5-Luc reporter, TCF/LEF binding sites) in SW480 colon carcinoma cells. The assay can be described thus: Screening assay for Wnt activity: Sp5-Luc reporter gene assay.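 On all read-outs here: firefly luciferase luminescence read in stably transduced SW480 cells carrying the Sp5 promoter reporter with eight TCF/LEF sites, compounds given in 0.1% DMSO final.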 In kind it is cell-based, human. The following applies: Homo sapiens; for EC50: Sp5-Luc reporter, SW480 cells, 36 to 48 hours; for inhibition at 10 µM: SW480, read-out: percent inhibition at 10 μM. A general note: In a reporter assay the amount or activity of a reporter protein is the signal.
Method: The screening assay for Wnt activity is described as follows.
Following incubation, 15 μl of BriteLite Plus luminescence reagent (Perkin Elmer) was added to each well of the 384-well assay plates. The plates were placed on an orbital shaker for 2 min and then luminescence was quantified using the Envision (Perkin Elmer) plate reader.

Assay [3] relates to Tau phosphorylation at Ser396 (pSer396). The assay can be described thus: Tau phosphorylation assay (pSer396 ELISA / western blot) in SH-SY5Y cells.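 Further: EC50 for reduction of Tau pSer396 in lysed cells, measured by colorimetric ELISA or chemiluminescent western blot, both using the same pSer396 antibody.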 The assay is classed as cell-based, human. The conditions noted are these: Homo sapiens, read-out: pSer396 Tau EC50. (In general: In an ELISA, binding on a coated surface is turned into a signal by an enzyme label.)
For assay [4], the target named is recombinant GSK3β kinase (Homo sapiens (Human), UniProt P49841). The assay can be described thus: GSK3β kinase assay (Ser/Thr 09 peptide Z-lyte FRET).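 Further: kinase activity read as coumarin to fluorescein emission ratio, 11-point threefold dilutions from 10 µM to 0.0003 µM in duplicate, unphosphorylated and phosphorylated peptide as 0% and 100% controls.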 In kind it is biochemical. The following applies: 46 μM ATP, 1 h room temperature.
Assay [5] has as its system α-smooth muscle actin (αSMA) positive LL29 cells. The assay can be described thus: Inhibition of fibrotic process: αSMA in TGF-β1 treated primary human fibroblasts from IPF patients.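 On all read-outs here: controls were TGF-β1 stimulated wells with DMSO vehicle (positive) and cells given DMSO alone (negative), cultured in F12 medium with 1% fetal bovine serum.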 In kind it is cell-based. The conditions noted are these: Homo sapiens, Fibroblast; for EC50: 96 h, Table 8, LL29 fibroblasts from IPF patients, TGF-β1 20 ng/mL, 4 days, dose-response 10 μM to 0.94 nM; for inhibition at 10 µM: read-out: percent value in parentheses beside EC50 >10 μM.

In assay [6] the test system is IL-6. In words: IL-6 inhibition in LPS-stimulated human peripheral blood mononuclear cells (HTRF).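 On all read-outs here: IL-6 detected by HTRF with an XL665- and Cryptate-labelled anti-IL-6 antibody pair, samples run in duplicate, EC50 obtained from a four-parameter Levenberg-Marquardt curve fit.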 In kind it is cell-based. The conditions noted are these: Homo sapiens, PBMC; for inhibition at 10 µM: read-out: percent value in parentheses beside EC50 >10 μM; for EC50: Table 9, huPBMCs, LPS 50 ng/mL, 22 hours, dose-response starting from 10 μM.
Method: After 22 hour incubation, a mixture of anti-IL6 XL665 and anti-IL-6 Cryptate diluted in reconstitution buffer (Catalog #62IL6PEC, Cisbio Inc., Bedford, Mass.) was added to each well. […] All samples were processed in duplicate. […] EC50 was determined using software generated by Dotmatics Limited (Windhill Bishops Stortford Herts, UK) using the Levenberg-Marquardt 4 parameter fitting procedure with finite different gradients.
Assay [7] has as its system SW480 colon carcinoma cells. The assay can be described thus: Cell viability assay (CellTiter-Glo). In kind it is cell-based, human. The conditions noted are these: Homo sapiens; for EC50: 96 h, SW480 cells, CellTiter-Glo, four days incubation; for inhibition at 10 µM: SW480, read-out: percent inhibition at 10 μM. (In general: ATP-based viability assays read luminescence as a measure of living cells.)

Setting [8] is: SH-SY5Y cells, overnight (16-18 h) exposure.

Where two headings read alike, the source gives them in different places.

Chain of recombinant GSK3β kinase (P49841 whole entry): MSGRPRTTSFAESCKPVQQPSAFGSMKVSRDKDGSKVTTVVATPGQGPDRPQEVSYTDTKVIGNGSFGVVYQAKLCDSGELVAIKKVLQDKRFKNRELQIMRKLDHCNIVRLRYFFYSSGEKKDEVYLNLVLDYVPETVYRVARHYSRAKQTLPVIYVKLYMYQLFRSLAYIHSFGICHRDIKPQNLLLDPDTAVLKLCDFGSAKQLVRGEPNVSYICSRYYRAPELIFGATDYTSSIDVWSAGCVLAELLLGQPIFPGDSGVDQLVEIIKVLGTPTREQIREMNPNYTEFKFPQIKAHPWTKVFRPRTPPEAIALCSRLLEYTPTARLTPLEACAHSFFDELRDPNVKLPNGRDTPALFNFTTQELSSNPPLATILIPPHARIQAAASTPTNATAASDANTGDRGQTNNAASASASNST

Broadly, the EC50 is the concentration giving half of the maximal effect. `Cc1nnc(-c2ccc3cnc(NC(=O)C4CCN(CCC(F)(F)F)CC4)cc3c2)n1C` [Compound 279, N-(6-(4,5-Dimethyl-4H-1,2,4-triazol-3-yl)isoquinolin-3-yl)-1-(3,3,3-trifluoropropyl)piperidine-4-carboxamide]: the concentration for a half-maximal effect (EC50) is 0.0078 µM in assay [1]; 5.65 µM in assay [2]; 0.498 µM in assay [3] (setting [8]); 0.014 µM in assay [4]; 1.2 µM in assay [5]; greater than 10 µM in assay [6]. Also, the EC50 in assay [7] is greater than 10 µM. Moreover, the inhibition at 10 µM in assay [6] was 14.2%; in assay [7], 52.4%.

Turning to `CC(C)CN1CCC(F)(C(=O)Nc2cc3cc(-c4nncn4C)ccc3cn2)CC1` [Compound 280, 4-Fluoro-1-isobutyl-N-(6-(4-methyl-4H-1,2,4-triazol-3-yl)isoquinolin-3-yl) piperidine-4-carboxamide], the EC50 is 0.0108 µM in assay [1]; 2.33 µM in assay [2]; 0.677 µM in assay [3] (setting [8]); 0.185 µM in assay [4]; 0.909 µM in assay [5]; greater than 10 µM in assay [6]. The concentration for a half-maximal effect (EC50) in assay [7] stood at 9.57 µM. For the same molecule, the inhibition at 10 µM in assay [6] came out at 11.6%.

As for `CC(C)CN1CCC(F)(C(=O)Nc2cc3cc(-c4cn(C)nn4)ccc3cn2)CC1` [Compound 281, 4-Fluoro-1-isobutyl-N-(6-(1-methyl-1H-1,2,3-triazol-4-yl)isoquinolin-3-yl) piperidine-4-carboxamide], the EC50 is 0.0081 µM in assay [1]; greater than 10 µM in assay [2]; 0.518 µM in assay [3] (setting [8]); 0.071 µM in assay [4]; 0.486 µM in assay [5]; greater than 10 µM in assay [6]. The concentration for a half-maximal effect (EC50) in assay [7] was greater than 10 µM. Also, the inhibition at 10 µM in assay [2] is 47%; in assay [6] it was 0%.

Take `CCN1CCC(F)(C(=O)Nc2cc3cc(-c4cn(C)nn4)ccc3cn2)CC1` [Compound 282, 1-Ethyl-4-fluoro-N-(6-(1-methyl-1H-1,2,3-triazol-4-yl)isoquinolin-3-yl) piperidine-4-carboxamide]: the EC50 in assay [1] is 0.0115 µM; in assay [2], greater than 10 µM; in assay [3] (setting [8]) it was 0.973 µM; in assay [4], 0.134 µM; in assay [5] it was 1.94 µM; in assay [6], greater than 10 µM. The molecule also came in with a concentration for a half-maximal effect (EC50) in assay [7] of 6.61 µM. The inhibition at 10 µM in assay [2] was 49.3%; in assay [6], 2.4%.

Take `O=C(Nc1cc2cc(-c3cnn4c3CN(CCF)CC4)ccc2cn1)C1CCC(F)(F)CC1` [Compound 283, 4,4-Difluoro-N-(6-(5-(2-fluoroethyl)-4,5,6,7-tetrahydropyrazolo[1,5-a]pyrazin-3-yl)isoquinolin-3-yl)cyclohexane-1-carboxamide]: the EC50 stood at 0.007 µM in assay [1]; 2.49 µM in assay [2]; 0.411 µM in assay [3] (setting [8]); 0.062 µM in assay [4]; 0.782 µM in assay [5]; 5.45 µM in assay [6]. This molecule also gave an EC50 in assay [7] of 3.12 µM.

Take `Cn1cc(-c2ccc3cnc(NC(=O)CN4CCCC4)cc3c2)cn1` [Compound 284, N-(6-(1-Methyl-1H-pyrazol-4-yl)isoquinolin-3-yl)-2-(pyrrolidin-1-yl) acetamide]: the EC50 was determined as 0.0071 µM in assay [1]; 1.87 µM in assay [2]; 0.359 µM in assay [3] (setting [8]); 0.037 µM in assay [4]; 2.34 µM in assay [5]; 1.18 µM in assay [6]. Also, the EC50 in assay [7] was 2.67 µM.

Turning to `CCn1cc(-c2ccc3cnc(NC(=O)CN4CCCC4)cc3c2)cn1` [Compound 285, N-(6-(1-Ethyl-1H-pyrazol-4-yl)isoquinolin-3-yl)-2-(pyrrolidin-1-yl) acetamide], the EC50 came out at 0.0442 µM in assay [1]; 3.41 µM in assay [2]; 1.58 µM in assay [3] (setting [8]); 0.149 µM in assay [4]; 1.47 µM in assay [5]; 2.27 µM in assay [6]. A half-maximal effect in assay [7] (EC50) was put at 7.02 µM.

Regarding `O=C(CN1CCCC1)Nc1cc2cc(-c3cnn(C4CC4)c3)ccc2cn1` [Compound 286, N-(6-(1-Cyclopropyl-1H-pyrazol-4-yl)isoquinolin-3-yl)-2-(pyrrolidin-1-yl) acetamide], the 50% effective concentration (EC50) in assay [1] was 0.0649 µM; in assay [2], 3.14 µM; in assay [3] (setting [8]) it was 1.15 µM; in assay [4], 0.186 µM; in assay [5] it was greater than 10 µM; in assay [6] it was 1.23 µM. Moreover, in assay [7], a half-maximal response (EC50) required 3.29 µM. Further, the inhibition at 10 µM in assay [5] stood at 16.4%.

On to `CC(C(=O)Nc1cc2cc(-c3cnn(C)c3)ccc2cn1)N1CCCC1` (centres unmarked) [Compound 288, N-(6-(1-Methyl-1H-pyrazol-4-yl)isoquinolin-3-yl)-2-(pyrrolidin-1-yl) propanamide], for which the EC50 in assay [1] was 0.0273 µM; in assay [2], 1.2 µM; in assay [3] (setting [8]), 0.159 µM; in assay [4] it was 0.02 µM; in assay [5], 0.532 µM; in assay [6], 1.24 µM. This molecule gave an EC50 in assay [7] of 2.66 µM.

As to `C[C@@H]1CCCN1CC(=O)Nc1cc2cc(-c3cnn(C)c3)ccc2cn1` [Compound 289, (R)—N-(6-(1-Methyl-1H-pyrazol-4-yl)isoquinolin-3-yl)-2-(2-methylpyrrolidin-1-yl)acetamide], the concentration for a half-maximal effect (EC50) in assay [1] was 0.0137 µM; in assay [2], 2.65 µM; in assay [3] (setting [8]), 0.185 µM; in assay [4], 0.062 µM; in assay [5], greater than 10 µM; in assay [6], 3.2 µM. In assay [7], this molecule gave an EC50 of 7.75 µM. For the same molecule, the inhibition at 10 µM in assay [5] was 14.3%.

Take `C[C@H]1CCCN1CC(=O)Nc1cc2cc(-c3cnn(C)c3)ccc2cn1` [Compound 290, (S)—N-(6-(1-Methyl-1H-pyrazol-4-yl)isoquinolin-3-yl)-2-(2-methylpyrrolidin-1-yl)acetamide]: the concentration giving a half-maximal response (EC50) in assay [1] stood at 0.0058 µM; in assay [2] it was 5.23 µM; in assay [3] (setting [8]), 0.49 µM; in assay [4], 0.075 µM; in assay [5], 1.06 µM; in assay [6], 4.78 µM. This molecule registered an EC50 in assay [7] of 3.78 µM.

`Cn1cc(-c2ccc3cnc(NC(=O)CN4CC5CC5C4)cc3c2)cn1` (centres unmarked) [Compound 291, 2-(3-Azabicyclo[3.1.0]hexan-3-yl)-N-(6-(1-methyl-1H-pyrazol-4-yl)isoquinolin-3-yl)acetamide]: the concentration for a half-maximal effect (EC50) in assay [1] is 0.0082 µM; in assay [2], 4.64 µM; in assay [3] (setting [8]) it was 0.716 µM; in assay [4] it was 0.043 µM; in assay [5] it was greater than 10 µM; in assay [6] it was 9.83 µM. In assay [7], the EC50 was greater than 10 µM. In addition, the inhibition at 10 µM in assay [5] came out at 49.6%; in assay [7], 24.4%.

Take `Cn1cc(-c2ccc3cnc(NC(=O)CN4C5CCC4CC5)cc3c2)cn1` [Compound 292, 2-(7-Azabicyclo[2.2.1]heptan-7-yl)-N-(6-(1-methyl-1H-pyrazol-4-yl)isoquinolin-3-yl)acetamide]: the EC50 in assay [1] worked out at 0.0078 µM; in assay [2], 3.39 µM; in assay [3] (SH-SY5Y), 1.35 µM; in assay [4], 0.173 µM; in assay [5], 2.22 µM; in assay [6], 1.12 µM. In assay [7], this molecule yielded an EC50 of 2.82 µM.

`CC1CCN(CC(=O)Nc2cc3cc(-c4cnn(C)c4)ccc3cn2)CC1` [Compound 293, N-(6-(1-Methyl-1H-pyrazol-4-yl)isoquinolin-3-yl)-2-(4-methylpiperidin-1-yl)acetamide]: the 50% effective concentration (EC50) in assay [1] is 0.005 µM; in assay [2] it was 3.22 µM; in assay [3] (setting [8]) it was 0.668 µM; in assay [4], 0.059 µM; in assay [5], 7.77 µM; in assay [6], 1.17 µM. For the same molecule, it took 2.86 µM to reach a half-maximal effect in assay [7] (EC50).

As to `Cn1cc(-c2ccc3cnc(NC(=O)CN4CCC(C(F)(F)F)CC4)cc3c2)cn1` [Compound 294, N-(6-(1-Methyl-1H-pyrazol-4-yl)isoquinolin-3-yl)-2-(4-(trifluoromethyl)piperidin-1-yl)acetamide], the 50% effective concentration (EC50) in assay [1] was 0.0124 µM; in assay [2], 5.19 µM; in assay [3] (setting [8]) it was 0.905 µM; in assay [4], 0.041 µM; in assay [5] it was greater than 10 µM; in assay [6] it was 6.23 µM. In assay [7], it took 4.15 µM to reach a half-maximal effect (EC50). The inhibition at 10 µM in assay [5] worked out at 41.3%.

Regarding `Cn1cc(-c2ccc3cnc(NC(=O)CN4CCC5(CC4)CC5)cc3c2)cn1` [Compound 296, N-(6-(1-Methyl-1H-pyrazol-4-yl)isoquinolin-3-yl)-2-(6-azaspiro[2.5]octan-6-yl)acetamide], the EC50 was 0.0143 µM in assay [1]; 3.48 µM in assay [2]; 0.978 µM in assay [3] (setting [8]); 0.08 µM in assay [4]; 1.96 µM in assay [5]; 1.57 µM in assay [6]. The molecule also had a concentration giving a half-maximal response (EC50) in assay [7] of 3.46 µM.

With `O=C(Nc1cc2cc(-c3cnn(C4CC4)c3)ccc2cn1)C1CCN(CCC(F)(F)F)CC1` [Compound 297, N-(6-(1-Cyclopropyl-1H-pyrazol-4-yl)isoquinolin-3-yl)-1-(3,3,3-trifluoropropyl)piperidine-4-carboxamide], the EC50 in assay [1] is 0.0237 µM; in assay [2] it was 4.81 µM; in assay [3] (setting [8]), 1.42 µM; in assay [4], 0.155 µM; in assay [5], 0.447 µM; in assay [6], 1.17 µM. In addition, the EC50 in assay [7] is 5.72 µM.

The record behind these values is patent US10287267B2, “Isoquinolin-3-yl carboxamides and preparation and use thereof” (Samumed, LLC, priority 2016, dated 2019).
